Laboratory results from ChEMBL document CHEMBL6092226, “Tilting the Scales toward EGFR Mutant Selectivity: Expanding the Scope of Bivalent "Type V" Kinase Inhibitors” (J Med Chem, 2024).
pEC50, pKi: −log10 of the molar value. Active and inactive are the calls of the source. The rule behind the calls is not given here.

Legend:
[1] = test system: BaF3; test: cells; conditions: Mus musculus, BaF3, 72 h
[2] = molecular target: T1, Cytoplasmic tyrosine-protein kinase BMX (Homo sapiens) (UniProt P51813); test: Inhibition of BMX (unknown origin) at 1 uM by Eurofins DiscoverX KINOMEscan analysis
T1 sequence (whole entry): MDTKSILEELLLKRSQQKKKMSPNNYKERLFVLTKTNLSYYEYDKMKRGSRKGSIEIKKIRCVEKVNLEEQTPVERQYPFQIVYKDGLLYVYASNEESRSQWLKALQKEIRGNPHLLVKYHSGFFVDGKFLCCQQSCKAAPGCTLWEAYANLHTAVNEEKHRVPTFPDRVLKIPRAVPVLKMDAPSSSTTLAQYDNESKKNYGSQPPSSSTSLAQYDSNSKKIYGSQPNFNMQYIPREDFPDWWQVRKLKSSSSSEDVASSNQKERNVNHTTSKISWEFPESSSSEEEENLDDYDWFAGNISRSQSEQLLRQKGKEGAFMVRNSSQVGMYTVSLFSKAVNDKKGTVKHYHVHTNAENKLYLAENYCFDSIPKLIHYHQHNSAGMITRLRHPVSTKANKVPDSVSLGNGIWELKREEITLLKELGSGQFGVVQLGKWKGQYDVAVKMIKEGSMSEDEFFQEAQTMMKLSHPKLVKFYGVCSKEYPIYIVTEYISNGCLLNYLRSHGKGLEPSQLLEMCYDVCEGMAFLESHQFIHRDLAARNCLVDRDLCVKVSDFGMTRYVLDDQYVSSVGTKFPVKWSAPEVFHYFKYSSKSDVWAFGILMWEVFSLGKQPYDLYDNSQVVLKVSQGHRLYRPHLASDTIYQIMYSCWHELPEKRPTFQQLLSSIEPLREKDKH

[3] = test system: BaF3; test: Antiproliferative activity against mouse BaF3 cells harboring EGFR exon 19del mutant incubated for 72 hrs by MTT assay; assay type: functional, cell-based; conditions: BaF3, 72 h
[4] = species: Homo sapiens; test: Inhibition of DMPK2 (unknown origin) at 1 uM by Eurofins DiscoverX KINOMEscan analysis relative to control
[5] = molecular target: T2, Dual specificity mitogen-activated protein kinase kinase 7 (Homo sapiens) (UniProt O14733); test: Inhibition of MKK7 (unknown origin) at 1 uM by Eurofins DiscoverX KINOMEscan analysis
T2 sequence (whole entry): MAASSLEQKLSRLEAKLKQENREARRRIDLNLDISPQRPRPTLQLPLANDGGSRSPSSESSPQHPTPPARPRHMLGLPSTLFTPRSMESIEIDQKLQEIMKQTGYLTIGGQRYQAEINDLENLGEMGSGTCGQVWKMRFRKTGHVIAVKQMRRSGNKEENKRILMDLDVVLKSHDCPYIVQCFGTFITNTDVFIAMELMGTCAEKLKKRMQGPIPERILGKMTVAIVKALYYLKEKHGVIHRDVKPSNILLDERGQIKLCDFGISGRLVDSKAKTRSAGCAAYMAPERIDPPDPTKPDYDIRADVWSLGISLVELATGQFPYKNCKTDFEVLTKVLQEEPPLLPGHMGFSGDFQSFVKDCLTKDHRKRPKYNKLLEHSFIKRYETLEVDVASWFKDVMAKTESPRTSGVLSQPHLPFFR

[6] = Drug metabolism in pooled male human liver microsomes assessed as thioether oxidation mediated metabolite formation at 150 uM measured after 2 hrs by LC-MS analysis; assay type: ADME, Microsome
[7] = test system: HCC827; test: cells; conditions: Homo sapiens, HCC827, 72 h
[8] = molecular target: Epidermal growth factor receptor (Homo sapiens, UniProt P00533); test: Time-dependent irreversible inhibition of N-terminal GST-tagged wildtype human EGFR cytoplasmic domain (669 to 1210 residues) extracted from Sf21 insect cells assessed as apparent inactivation constant (Ki) incubated for 240 mins in presence of ATP by fluorescence based analysis; conditions: read-out: Ki(app)
[9] = test system: BaF3; test: cells; conditions: Mus musculus, BaF3, 72 h; remark: listed apart in the source
[10] = molecular target: Epidermal growth factor receptor (Homo sapiens, UniProt P00533, L858R/T790M); test: Time-dependent irreversible inhibition of GST-tagged EGFR L858R/T790M mutant cytoplasmic domain (669 to 1210 residues) (unknown origin) assessed as apparent inactivation constant (Ki) incubated for 240 mins in presence of ATP by fluorescence based analysis; conditions: read-out: Ki(app)
[11] = molecular target: Epidermal growth factor receptor (Homo sapiens, UniProt P00533, L858R); test: Time-dependent irreversible inhibition of GST-tagged EGFR L858R mutant cytoplasmic domain (669 to 1210 residues) (unknown origin) assessed as apparent inactivation constant (Ki) incubated for 240 mins in presence of ATP by fluorescence based analysis; conditions: read-out: Ki(app)
[12] = test system: BaF3; test: cells; conditions: Mus musculus, BaF3, 72 h; remark: listed apart in the source
[13] = molecular target: T3, Tyrosine-protein kinase Tec (Homo sapiens) (UniProt P42680); test: Inhibition of TEC (unknown origin) at 1 uM by Eurofins DiscoverX KINOMEscan analysis
T3 sequence (whole entry): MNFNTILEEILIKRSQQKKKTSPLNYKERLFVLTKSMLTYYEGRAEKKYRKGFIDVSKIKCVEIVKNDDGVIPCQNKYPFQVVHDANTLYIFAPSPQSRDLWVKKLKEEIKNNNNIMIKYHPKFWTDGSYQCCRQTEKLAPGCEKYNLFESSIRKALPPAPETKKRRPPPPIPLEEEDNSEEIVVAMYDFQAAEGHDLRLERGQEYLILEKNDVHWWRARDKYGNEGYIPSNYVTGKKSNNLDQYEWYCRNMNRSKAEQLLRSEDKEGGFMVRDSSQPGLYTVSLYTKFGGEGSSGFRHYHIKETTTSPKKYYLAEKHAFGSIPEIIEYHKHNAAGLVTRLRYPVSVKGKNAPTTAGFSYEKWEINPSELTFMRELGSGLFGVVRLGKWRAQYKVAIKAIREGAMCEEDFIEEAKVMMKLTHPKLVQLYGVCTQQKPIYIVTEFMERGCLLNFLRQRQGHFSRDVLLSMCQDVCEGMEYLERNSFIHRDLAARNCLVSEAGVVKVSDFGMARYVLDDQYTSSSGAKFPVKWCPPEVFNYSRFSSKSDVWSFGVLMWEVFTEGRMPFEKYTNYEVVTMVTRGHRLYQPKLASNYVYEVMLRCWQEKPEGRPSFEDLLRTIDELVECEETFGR

Epidermal growth factor receptor (Homo sapiens, UniProt P00533, L858R), sequence (P00533 25-1210 L858R limits assumed): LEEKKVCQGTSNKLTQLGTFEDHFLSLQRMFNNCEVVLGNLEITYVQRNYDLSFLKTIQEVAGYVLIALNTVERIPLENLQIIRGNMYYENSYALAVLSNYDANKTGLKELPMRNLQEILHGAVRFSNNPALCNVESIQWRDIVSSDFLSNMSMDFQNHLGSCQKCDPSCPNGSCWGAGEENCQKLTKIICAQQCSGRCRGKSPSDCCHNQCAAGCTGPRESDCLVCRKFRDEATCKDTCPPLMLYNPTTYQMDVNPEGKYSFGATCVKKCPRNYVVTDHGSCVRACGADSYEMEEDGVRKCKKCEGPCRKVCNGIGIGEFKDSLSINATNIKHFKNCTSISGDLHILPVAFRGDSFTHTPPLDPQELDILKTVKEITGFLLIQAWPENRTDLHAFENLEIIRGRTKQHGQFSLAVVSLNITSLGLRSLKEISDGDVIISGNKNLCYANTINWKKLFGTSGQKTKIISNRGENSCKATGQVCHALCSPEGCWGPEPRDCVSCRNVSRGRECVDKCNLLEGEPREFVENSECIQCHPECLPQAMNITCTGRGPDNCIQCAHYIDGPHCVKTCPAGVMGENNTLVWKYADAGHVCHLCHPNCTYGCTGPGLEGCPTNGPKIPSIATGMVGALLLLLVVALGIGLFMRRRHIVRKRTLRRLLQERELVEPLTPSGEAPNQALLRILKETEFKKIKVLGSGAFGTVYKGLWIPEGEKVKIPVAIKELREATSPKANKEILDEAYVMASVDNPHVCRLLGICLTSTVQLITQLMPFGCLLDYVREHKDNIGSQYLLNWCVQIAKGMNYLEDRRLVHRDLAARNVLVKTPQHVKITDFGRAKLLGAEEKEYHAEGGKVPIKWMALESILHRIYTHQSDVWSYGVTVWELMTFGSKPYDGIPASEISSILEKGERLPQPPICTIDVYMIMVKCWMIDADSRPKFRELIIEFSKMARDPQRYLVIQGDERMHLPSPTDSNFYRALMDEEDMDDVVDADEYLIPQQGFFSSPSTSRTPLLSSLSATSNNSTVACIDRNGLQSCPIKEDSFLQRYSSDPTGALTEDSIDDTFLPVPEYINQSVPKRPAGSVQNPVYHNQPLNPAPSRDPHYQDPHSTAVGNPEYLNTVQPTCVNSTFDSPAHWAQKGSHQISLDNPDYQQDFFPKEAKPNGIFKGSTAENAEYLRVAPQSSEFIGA
Epidermal growth factor receptor (Homo sapiens, UniProt P00533, L858R/T790M), sequence (P00533 25-1210 T790M/L858R limits assumed): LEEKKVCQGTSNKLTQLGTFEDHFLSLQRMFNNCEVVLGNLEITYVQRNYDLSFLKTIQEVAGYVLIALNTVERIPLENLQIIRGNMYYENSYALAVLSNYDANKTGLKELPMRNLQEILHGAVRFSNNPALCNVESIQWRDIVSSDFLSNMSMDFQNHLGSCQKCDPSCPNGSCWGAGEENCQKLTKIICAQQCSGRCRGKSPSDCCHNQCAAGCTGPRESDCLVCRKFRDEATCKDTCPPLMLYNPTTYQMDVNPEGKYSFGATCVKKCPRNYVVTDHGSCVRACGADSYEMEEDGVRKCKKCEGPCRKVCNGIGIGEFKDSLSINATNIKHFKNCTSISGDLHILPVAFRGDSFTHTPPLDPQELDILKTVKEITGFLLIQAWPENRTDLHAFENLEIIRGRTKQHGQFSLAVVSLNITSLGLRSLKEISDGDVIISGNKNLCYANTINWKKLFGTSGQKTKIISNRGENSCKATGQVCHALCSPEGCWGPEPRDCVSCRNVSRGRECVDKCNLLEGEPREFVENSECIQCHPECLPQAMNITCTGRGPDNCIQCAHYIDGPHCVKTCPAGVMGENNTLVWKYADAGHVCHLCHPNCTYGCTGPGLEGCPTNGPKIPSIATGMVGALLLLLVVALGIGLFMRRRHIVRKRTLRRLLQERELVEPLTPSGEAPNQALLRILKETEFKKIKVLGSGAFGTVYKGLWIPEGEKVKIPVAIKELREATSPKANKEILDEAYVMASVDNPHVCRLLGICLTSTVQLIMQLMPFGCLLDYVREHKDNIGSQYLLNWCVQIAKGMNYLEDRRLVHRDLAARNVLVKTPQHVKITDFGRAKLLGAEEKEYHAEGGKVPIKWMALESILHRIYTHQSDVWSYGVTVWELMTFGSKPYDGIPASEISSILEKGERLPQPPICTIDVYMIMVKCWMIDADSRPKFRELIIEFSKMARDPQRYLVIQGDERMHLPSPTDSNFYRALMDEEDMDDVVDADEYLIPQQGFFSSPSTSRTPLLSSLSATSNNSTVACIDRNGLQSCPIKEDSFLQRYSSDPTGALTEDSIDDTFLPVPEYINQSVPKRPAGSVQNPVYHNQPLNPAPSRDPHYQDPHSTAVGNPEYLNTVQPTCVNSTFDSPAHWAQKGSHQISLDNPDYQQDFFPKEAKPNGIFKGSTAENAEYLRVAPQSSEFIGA
Epidermal growth factor receptor (Homo sapiens, UniProt P00533), sequence (P00533 whole entry, the tested form may be a part): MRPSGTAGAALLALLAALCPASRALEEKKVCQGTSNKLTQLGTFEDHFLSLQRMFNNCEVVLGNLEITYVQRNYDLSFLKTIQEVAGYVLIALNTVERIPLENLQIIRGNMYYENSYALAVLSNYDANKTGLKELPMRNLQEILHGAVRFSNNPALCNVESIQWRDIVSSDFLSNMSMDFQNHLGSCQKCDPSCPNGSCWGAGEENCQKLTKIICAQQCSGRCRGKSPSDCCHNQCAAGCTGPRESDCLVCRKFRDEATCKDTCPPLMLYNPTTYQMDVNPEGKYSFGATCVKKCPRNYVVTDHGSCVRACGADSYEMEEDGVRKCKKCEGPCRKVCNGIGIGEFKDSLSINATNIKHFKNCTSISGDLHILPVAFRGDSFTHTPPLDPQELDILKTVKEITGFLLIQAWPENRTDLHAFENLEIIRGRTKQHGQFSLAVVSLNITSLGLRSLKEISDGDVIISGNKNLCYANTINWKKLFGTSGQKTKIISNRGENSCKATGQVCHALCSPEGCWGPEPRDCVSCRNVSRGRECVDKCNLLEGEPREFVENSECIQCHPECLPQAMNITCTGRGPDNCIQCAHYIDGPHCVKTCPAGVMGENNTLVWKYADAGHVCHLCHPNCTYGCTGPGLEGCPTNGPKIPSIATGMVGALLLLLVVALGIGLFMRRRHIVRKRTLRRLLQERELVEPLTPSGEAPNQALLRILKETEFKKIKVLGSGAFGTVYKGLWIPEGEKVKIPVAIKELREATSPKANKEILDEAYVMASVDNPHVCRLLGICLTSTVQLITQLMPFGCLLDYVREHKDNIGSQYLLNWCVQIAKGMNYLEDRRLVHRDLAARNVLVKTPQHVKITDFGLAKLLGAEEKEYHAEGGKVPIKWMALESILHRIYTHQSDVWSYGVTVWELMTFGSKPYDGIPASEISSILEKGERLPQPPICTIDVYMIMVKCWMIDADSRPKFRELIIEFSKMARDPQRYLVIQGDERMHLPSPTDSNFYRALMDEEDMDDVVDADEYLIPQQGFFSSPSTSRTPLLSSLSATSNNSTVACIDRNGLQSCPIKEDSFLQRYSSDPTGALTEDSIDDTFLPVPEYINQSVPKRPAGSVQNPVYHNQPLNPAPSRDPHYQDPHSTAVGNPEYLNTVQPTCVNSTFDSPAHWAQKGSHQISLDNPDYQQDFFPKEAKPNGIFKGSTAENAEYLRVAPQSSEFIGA

With `C=CC(=O)Nc1ccc(OC)c(Nc2cc(-c3[nH]c(SC)nc3-c3cccc(NC(=O)c4cccc(O)c4CN4Cc5ccccc5C4=O)c3)ccn2)c1` as the molecule, how does the pEC50 [1] read?
The pEC50 was 6.12.

What about the inhibition [2] of the same molecule?
Its inhibition is “inactive”.

What about the pEC50 [3] of the same molecule?
The pEC50 was 6.02.

And the inhibition [4]?
The inhibition was < 10%.

And the inhibition [5]?
The inhibition was “inactive”.

And the Drug metabolism [6]?
Its Drug metabolism is “metabolite_detected”.

And the pEC50 [7]?
The pEC50 was 6.80.

What about the pKi [8] of the same molecule?
Its pKi is 5.88.

And the pEC50 [9]?
The pEC50 was 6.82.

What about the pKi [10] of the same molecule?
The pKi was 6.27.

And the pKi [11]?
The pKi was 6.56.

And the pEC50 [12]?
Its pEC50 is 6.37.

And the inhibition [13]?
Its inhibition is “inactive”.
